Assay results: US20200093103A1, “BREEDING WATER FOR ANGUILLIFORMES AND METHOD FOR REARING ANGUILLIFORMES” (SHIN NIPPON BIOMEDICAL LABORATORIES, LTD., priority 2016, published 2020)

Test system: Anguilla japonica leptocephali
Test: Induction of Anguilla japonica metamorphosis by T4 treatment in 23° C. breeding water
Type: in vivo
Design: key: L: During life, no characteristics of metamorphosis seen.; Stage 1: Starting phase of metamorphosis. The rostral end is rounded, and intestinal degeneration starts.; Stage 2: Peak phase of metamorphosis. Intestinal degeneration becomes pronounced.; Stage 3: Late phase of metamorphosis.; Stage 4: Pre-glass eel stage. Almost the eel form, but the body height still remains
Text: Stage 1: Starting phase of metamorphosis. The rostral end is rounded, and intestinal degeneration starts.
Stage 2: Peak phase of metamorphosis. Intestinal degeneration becomes pronounced. In the second half, the anus reaches to near the last vertical blood vessel (VBV last).
Stage 3: Late phase of metamorphosis. The preanal length (PAL) becomes equal to or shorter than the last vertical blood vessel length (VBV last Length) (PAL VBV last Length). The body height is apparently low.
Stage 4: Pre-glass eel stage. Almost the eel form, but the body height still remains. Melanophores on the body surface or endogenous melanophores are not yet seen.
Elver stage: Juvenile stage. Food intake can be identified.
A thyroid hormone (e.g., thyroxine (T4)) is adjusted to 50 to 100 mM in a 1- to 2-mL volume messflask. As a solvent, known solvents (water, alcohol) can be used. Ethanol is preferably used as the solvent.
For example, using ethanol as a solvent, T4 adjusted to 50 mM is diluted 500-fold, 5,000-fold, and 50,000-fold, respectively, and adjusted to […], 1 μM, and 100 nM. A feed can be prepared in this manner.
Artificial seawater is added to a breeding vessel, and 1/1000 of the […] T4 is added to prepare […] T4 breeding water.
Half of the breeding water is replaced every two days with breeding water of the same concentration. In the case where the concentration is changed, for example, in the case of changing from 10 nM to 2 nM, 80% to the breeding water is removed, and unadjusted artificial seawater is newly added to make 1 L.
Leptocephali visually considered to have reached a total length of 40 mm (or may be 30 mm to 50 mm, may be 35 mm to 45 mm, or may also be 35 mm or more, 40 mm or more, or 45 mm or more) are selected, anesthetized with 2-phenoxyethanol, and then photographed, and the total length of each larva is measured using an image analyzing device.
The larvae are placed in 10 nM T4 breeding water and then placed in an incubator set at 23° C., and breeding is started. In first one week, observation is performed every two days, and half of the 10 nM T4 breeding water is replaced each time. The average amount of thyroid hormone in the breeding water in stage 1 is 1 nM to 100 nM, for example, and may also be 3 nM to 30 nM, or 5 nM to 20 nM.
For larvae visually judged to have reached the second half of stage 2, the concentration of the breeding water is changed. The breeding water is diluted 5-fold or 10-fold and adjusted to 2 nM or 1 nM T4, and breeding is continued. The average amount of thyroid hormone in the breeding water in stage 2 may be, as compared with the breeding water of stage 1, diluted 2-fold to 20-fold, diluted 3 to 15-fold, or diluted 5 to 10-fold as described above. The average amount of thyroid hormone in the breeding water in stage 2 is 0.1 nM to 20 nM, for example, and may also be 0.5 nM to 10 nM, 1 nM to 5 nM, or 1 nM to 2 nM.
For larvae visually judged to have reached stage 3, the breeding water is quickly changed 0.2 nM T4 breeding water, which is a 5-fold dilution of 1 nM T4 breeding water, and further changed to 0.1 nM T4 breeding water on the following day. […] Also, in larvae whose anus position has not reached the last vertical hemal spine, when they are judged to be on the brink of stage 3, the concentration is changed as above. The average amount of thyroid hormone in the breeding water in stage 3 may be, as compared with the breeding water of stage 2, diluted 2-fold to 50-fold, diluted 3 to 15-fold, diluted 4 to 6-fold, or diluted 5-fold as described above. The average amount of thyroid hormone in the breeding water in stage 3 is 0.01 nM to 2 nM, for example, and may also be 0.05 nM to 1 nM, 0.1 nM to 0.5 nM, or 0.1 nM to 0.2 nM. […] That is, the concentration may be changed such that the thyroid hormone becomes undetectable in the breeding water in the course of stage 3.
In stage 3, breeding is continuously performed in the 0.1 nM T4 breeding water. […]

## N[C@@H](Cc1cc(I)c(Oc2cc(I)c(O)c(I)c2)c(I)c1)C(=O)O [T4, thyroxine]
Individual Exp. 5-2, 175 days old, total length 41.3 mm at start, c3 onward = treatment days 1,3,5,7,8,9,10,11,12,13,14,15,16,17,18, T4 (nM) 10,10,10,10,2,1,0.2,0.1,0.1,0.1,0.1,0.1, treatment day 14, T4 0.1 nM
  metamorphosis stage: 3
Individual Exp. 5-2, 175 days old, total length 41.3 mm at start, c3 onward = treatment days 1,3,5,7,8,9,10,11,12,13,14,15,16,17,18, T4 (nM) 10,10,10,10,2,1,0.2,0.1,0.1,0.1,0.1,0.1, treatment day 15, T4 0.1 nM
  metamorphosis stage: 3
Individual Exp. 5-2, 175 days old, total length 41.3 mm at start, c3 onward = treatment days 1,3,5,7,8,9,10,11,12,13,14,15,16,17,18, T4 (nM) 10,10,10,10,2,1,0.2,0.1,0.1,0.1,0.1,0.1, treatment day 16
  metamorphosis stage: 4
Individual Exp. 5-3, 175 days old, total length 41.7 mm at start, c3 onward = treatment days 1,3,5,7,8,9,10,11,12,13,14,15,16,17,18, T4 (nM) 10,10,10,10,2,1,0.2,0.1,0.1,0.1,0.1,0.1, treatment day 1, T4 10 nM
  metamorphosis stage: L
Individual Exp. 5-3, 175 days old, total length 41.7 mm at start, c3 onward = treatment days 1,3,5,7,8,9,10,11,12,13,14,15,16,17,18, T4 (nM) 10,10,10,10,2,1,0.2,0.1,0.1,0.1,0.1,0.1, treatment day 3, T4 10 nM
  metamorphosis stage: L
Individual Exp. 5-3, 175 days old, total length 41.7 mm at start, c3 onward = treatment days 1,3,5,7,8,9,10,11,12,13,14,15,16,17,18, T4 (nM) 10,10,10,10,2,1,0.2,0.1,0.1,0.1,0.1,0.1, treatment day 5, T4 10 nM
  metamorphosis stage: 1
Individual Exp. 5-3, 175 days old, total length 41.7 mm at start, c3 onward = treatment days 1,3,5,7,8,9,10,11,12,13,14,15,16,17,18, T4 (nM) 10,10,10,10,2,1,0.2,0.1,0.1,0.1,0.1,0.1, treatment day 7, T4 10 nM
  metamorphosis stage: 2
Individual Exp. 5-3, 175 days old, total length 41.7 mm at start, c3 onward = treatment days 1,3,5,7,8,9,10,11,12,13,14,15,16,17,18, T4 (nM) 10,10,10,10,2,1,0.2,0.1,0.1,0.1,0.1,0.1, treatment day 8, T4 2 nM
  metamorphosis stage: 2
Individual Exp. 5-3, 175 days old, total length 41.7 mm at start, c3 onward = treatment days 1,3,5,7,8,9,10,11,12,13,14,15,16,17,18, T4 (nM) 10,10,10,10,2,1,0.2,0.1,0.1,0.1,0.1,0.1, treatment day 9, T4 1 nM
  metamorphosis stage: 2
Individual Exp. 5-3, 175 days old, total length 41.7 mm at start, c3 onward = treatment days 1,3,5,7,8,9,10,11,12,13,14,15,16,17,18, T4 (nM) 10,10,10,10,2,1,0.2,0.1,0.1,0.1,0.1,0.1, treatment day 10, T4 0.2 nM
  metamorphosis stage: 2
Individual Exp. 5-3, 175 days old, total length 41.7 mm at start, c3 onward = treatment days 1,3,5,7,8,9,10,11,12,13,14,15,16,17,18, T4 (nM) 10,10,10,10,2,1,0.2,0.1,0.1,0.1,0.1,0.1, treatment day 11, T4 0.1 nM
  metamorphosis stage: 3
Individual Exp. 5-3, 175 days old, total length 41.7 mm at start, c3 onward = treatment days 1,3,5,7,8,9,10,11,12,13,14,15,16,17,18, T4 (nM) 10,10,10,10,2,1,0.2,0.1,0.1,0.1,0.1,0.1, treatment day 12, T4 0.1 nM
  metamorphosis stage: 3
Individual Exp. 5-3, 175 days old, total length 41.7 mm at start, c3 onward = treatment days 1,3,5,7,8,9,10,11,12,13,14,15,16,17,18, T4 (nM) 10,10,10,10,2,1,0.2,0.1,0.1,0.1,0.1,0.1, treatment day 13, T4 0.1 nM
  metamorphosis stage: 3
Individual Exp. 5-3, 175 days old, total length 41.7 mm at start, c3 onward = treatment days 1,3,5,7,8,9,10,11,12,13,14,15,16,17,18, T4 (nM) 10,10,10,10,2,1,0.2,0.1,0.1,0.1,0.1,0.1, treatment day 14, T4 0.1 nM
  metamorphosis stage: 3
Individual Exp. 5-3, 175 days old, total length 41.7 mm at start, c3 onward = treatment days 1,3,5,7,8,9,10,11,12,13,14,15,16,17,18, T4 (nM) 10,10,10,10,2,1,0.2,0.1,0.1,0.1,0.1,0.1, treatment day 15, T4 0.1 nM
  metamorphosis stage: 3
Individual Exp. 5-3, 175 days old, total length 41.7 mm at start, c3 onward = treatment days 1,3,5,7,8,9,10,11,12,13,14,15,16,17,18, T4 (nM) 10,10,10,10,2,1,0.2,0.1,0.1,0.1,0.1,0.1, treatment day 16
  metamorphosis stage: 3
Individual Exp. 5-3, 175 days old, total length 41.7 mm at start, c3 onward = treatment days 1,3,5,7,8,9,10,11,12,13,14,15,16,17,18, T4 (nM) 10,10,10,10,2,1,0.2,0.1,0.1,0.1,0.1,0.1, treatment day 17
  metamorphosis stage: 3
Individual Exp. 5-3, 175 days old, total length 41.7 mm at start, c3 onward = treatment days 1,3,5,7,8,9,10,11,12,13,14,15,16,17,18, T4 (nM) 10,10,10,10,2,1,0.2,0.1,0.1,0.1,0.1,0.1, treatment day 18
  metamorphosis stage: 4
Individual Exp. 5-6, 174 days old, total length 34.5 mm at start, c3 onward = treatment days 1,3,5,7,8,9,10,11,12,13,14,15,16,17,18,20,22, T4 (nM) 10,10,10,10,10,10,10,2,1,1,0.2,0.1,0.1,0.1,0.1,0.1,0.1, treatment day 1, T4 10 nM
  metamorphosis stage: L
Individual Exp. 5-6, 174 days old, total length 34.5 mm at start, c3 onward = treatment days 1,3,5,7,8,9,10,11,12,13,14,15,16,17,18,20,22, T4 (nM) 10,10,10,10,10,10,10,2,1,1,0.2,0.1,0.1,0.1,0.1,0.1,0.1, treatment day 3, T4 10 nM
  metamorphosis stage: L
Individual Exp. 5-6, 174 days old, total length 34.5 mm at start, c3 onward = treatment days 1,3,5,7,8,9,10,11,12,13,14,15,16,17,18,20,22, T4 (nM) 10,10,10,10,10,10,10,2,1,1,0.2,0.1,0.1,0.1,0.1,0.1,0.1, treatment day 5, T4 10 nM
  metamorphosis stage: L
Individual Exp. 5-6, 174 days old, total length 34.5 mm at start, c3 onward = treatment days 1,3,5,7,8,9,10,11,12,13,14,15,16,17,18,20,22, T4 (nM) 10,10,10,10,10,10,10,2,1,1,0.2,0.1,0.1,0.1,0.1,0.1,0.1, treatment day 7, T4 10 nM
  metamorphosis stage: L
Individual Exp. 5-6, 174 days old, total length 34.5 mm at start, c3 onward = treatment days 1,3,5,7,8,9,10,11,12,13,14,15,16,17,18,20,22, T4 (nM) 10,10,10,10,10,10,10,2,1,1,0.2,0.1,0.1,0.1,0.1,0.1,0.1, treatment day 8, T4 10 nM
  metamorphosis stage: 2
Individual Exp. 5-6, 174 days old, total length 34.5 mm at start, c3 onward = treatment days 1,3,5,7,8,9,10,11,12,13,14,15,16,17,18,20,22, T4 (nM) 10,10,10,10,10,10,10,2,1,1,0.2,0.1,0.1,0.1,0.1,0.1,0.1, treatment day 9, T4 10 nM
  metamorphosis stage: 2
Individual Exp. 5-6, 174 days old, total length 34.5 mm at start, c3 onward = treatment days 1,3,5,7,8,9,10,11,12,13,14,15,16,17,18,20,22, T4 (nM) 10,10,10,10,10,10,10,2,1,1,0.2,0.1,0.1,0.1,0.1,0.1,0.1, treatment day 10, T4 10 nM
  metamorphosis stage: 2
